These results are taken from ChEMBL document CHEMBL5550164, “Enhancing anticancer treatment: Development of cRGD-Conjugated F-OH-Evo prodrugs for targeted delivery” (Bioorg Med Chem, 2024).

Data set [1] deals with U-87 MG. In words: Cytotoxicity against human U87 cells measured after 72 hrs by CCK8 assay. Format: functional, cell-based, U-87MG ATCC. In general terms: Tetrazolium assays rely on reduction of a dye to a coloured formazan, in cell work by metabolically active cells.
The next data set relates to HeLa. Briefly: Cytotoxicity against human HeLa cells measured after 72 hrs by CCK8 assay. Format: functional, cell-based.
A further data set has as its system A549. In words: Cytotoxicity against human A549 cells measured after 72 hrs by CCK8 assay. Type of data set: functional, cell-based. The conditions noted are these: A549, 72 h.
For a further data set, the system named is MCF7. In words: Cytotoxicity against human MCF7 cells measured after 72 hrs by CCK8 assay. Format: functional, cell-based. Particulars: MCF7, 72 h.
A short description of data set [2]: Drug uptake in human U87 cells incubated for 24 hrs by confocal laser scanning microscopy. Type of data set: ADME, cell-based. Particulars: u-87mg atcc.
Data set [3] can be described thus: Drug uptake in human MCF7 cells incubated for 24 hrs by confocal laser scanning microscopy. Format: ADME, cell-based. Particulars: mcf7, 24 h.
Data set [4] in a line: Drug uptake in human U87 cells by flow cytometry analysis. Type of data set: ADME, cell-based. Particulars: u-87mg atcc.
A short description of data set [5]: Drug uptake in human U87 cells at 20 nM by flow cytometry analysis. Type of data set: ADME, cell-based. Particulars: u-87mg atcc, 0.02 µM. For orientation: A flow cytometer gives signals particle by particle.
The nature of data set [6]: Stability in serum (unknown origin) assessed as compound remaining after 180 mins by HPLC analysis. Format: ADME, cell-free. The conditions noted are these: read-out: Stability.
Data set [7] has as its target T1, DNA topoisomerase 1 (Homo sapiens) (UniProt P11387).
T1 sequence (whole entry): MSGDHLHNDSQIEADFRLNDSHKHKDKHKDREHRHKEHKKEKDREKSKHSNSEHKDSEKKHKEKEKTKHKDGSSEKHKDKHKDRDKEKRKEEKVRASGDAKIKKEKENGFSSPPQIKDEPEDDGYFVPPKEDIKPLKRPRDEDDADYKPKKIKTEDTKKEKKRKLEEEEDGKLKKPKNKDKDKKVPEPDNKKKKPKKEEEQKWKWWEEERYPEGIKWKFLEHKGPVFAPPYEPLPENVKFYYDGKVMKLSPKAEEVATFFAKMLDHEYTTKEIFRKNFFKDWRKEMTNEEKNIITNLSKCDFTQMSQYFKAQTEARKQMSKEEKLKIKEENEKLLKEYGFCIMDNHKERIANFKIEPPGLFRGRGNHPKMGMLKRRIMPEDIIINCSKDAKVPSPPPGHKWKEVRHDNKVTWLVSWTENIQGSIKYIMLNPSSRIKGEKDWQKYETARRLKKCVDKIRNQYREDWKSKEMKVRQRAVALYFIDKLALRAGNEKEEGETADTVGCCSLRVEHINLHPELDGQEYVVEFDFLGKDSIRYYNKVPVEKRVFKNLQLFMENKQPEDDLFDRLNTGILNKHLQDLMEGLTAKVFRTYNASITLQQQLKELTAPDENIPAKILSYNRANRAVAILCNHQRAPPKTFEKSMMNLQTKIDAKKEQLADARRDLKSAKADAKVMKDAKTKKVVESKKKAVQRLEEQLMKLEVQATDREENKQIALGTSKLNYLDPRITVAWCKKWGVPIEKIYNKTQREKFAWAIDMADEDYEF
In words: Inhibition of topoisomerase 1 (unknown origin) mediated DNA relaxation using supercoiled pBR322 DNA as substrate incubated for 1 hr by EtBr staining based agarose gel electrophoresis method. The conditions noted are these: dose 500-1000 µM.

Data set [8] relates to U-87 MG. Briefly: Induction of cell cycle arrest at G2 phase in human U87 cells at 25 nM incubated for 24 hrs by flow cytometry analysis. Type of data set: functional, U-87MG ATCC.
Data set [9] concerns U-87 MG. In words: Inhibition of cell migration in human U87 cells at 25 nM after 16 hrs by scratch assay. Type of data set: functional, cell-based. The conditions noted are these: U-87MG ATCC.
Data set [10] relates to U-87 MG. In words: Inhibition of cell migration in human U87 cells at 25 nM incubated for 48 hrs by transwell assay relative to control. Format: functional, U-87MG ATCC.
The test system of data set [11] is U-87 MG. In words: Inhibition of colony formation in human U87 cells at 25 nM pretreated for 24 hrs followed by media replacement for every 3 days by crystal violet staining based assay. Format: functional, cell-based. The conditions noted are these: U-87MG ATCC.
For data set [12], the system named is U-87 MG. Briefly: Potency index ratio of 3-fluoro-10-hydroxy-Evodiamine IC50 to test compound IC50 for cytotoxicity against human U87 cells. Format: functional, U-87MG ATCC.

pIC50: −log10 of the molar value. Activity calls are given as the source filed them. The rule behind the calls is not given here.

Usually pIC50 stands for the IC50 on a negative log10 scale, so that one unit is a factor of ten. For `CN1c2ccc(F)cc2C(=O)N2CCc3c([nH]c4ccc(OC(=O)CCSSCCC(=O)NC[C@@H]5NC(=O)[C@H](Cc6ccccc6)NC(=O)[C@H](CC(=O)O)NC(=O)CNC(=O)[C@H](CCCNC(=N)N)NC5=O)cc34)C21` (stereo partly drawn), the pIC50 is 6.39 with U-87 MG [1], 6.55 in the data set on HeLa, below 6.30 with A549 and 6.86 in the data set with MCF7.
Taken in the same sequence, the figures for `CN1c2ccc(F)cc2C(=O)N2CCc3c([nH]c4ccc(OC(=O)CSCC(=O)NCC[C@@H]5NC(=O)[C@H](Cc6ccccc6)NC(=O)[C@H](CC(=O)O)NC(=O)CNC(=O)[C@H](CCCNC(=N)N)NC5=O)cc34)C21` (stereo partly drawn) were 7.28, 7.27, 7.42 and 7.22.
For `CN1c2ccc(F)cc2C(=O)N2CCc3c([nH]c4ccc(OC(=O)CSCC(=O)NCCCC[C@@H]5NC(=O)[C@H](Cc6ccccc6)NC(=O)[C@H](CC(=O)O)NC(=O)CNC(=O)[C@H](CCCNC(=N)N)NC5=O)cc34)C21` (stereo partly drawn), in that order: 7.08, 6.69, 7.27 and 6.96.
In the case of `CN1c2ccc(F)cc2C(=O)N2CCc3c([nH]c4ccc(OC(=O)CCCC(=O)NCCC[C@@H]5NC(=O)[C@H](Cc6ccccc6)NC(=O)[C@H](CC(=O)O)NC(=O)CNC(=O)[C@H](CCCNC(=N)N)NC5=O)cc34)C21` (stereo partly drawn), the pIC50 was below 6.30 in the data set on U-87 MG [1], 6.49 in the data set on HeLa, 6.34 with A549 and 7.04 with MCF7.
As to `CN1c2ccc(F)cc2C(=O)N2CCc3c([nH]c4ccc(OC(=O)CCSSCCC(=O)NCC[C@@H]5NC(=O)[C@H](Cc6ccccc6)NC(=O)[C@H](CC(=O)O)NC(=O)CNC(=O)[C@H](CCCNC(=N)N)NC5=O)cc34)C21` (stereo partly drawn), the pIC50 in the data set with U-87 MG [1] is 6.61; in the data set with HeLa, below 6.30; in the data set on A549, below 6.30; with MCF7, 6.79.
On to `CCN(CC)c1ccc2cc(C(=O)NCCCCCC(=O)NCCCCC(NC(=O)CSCC(=O)Oc3ccc4[nH]c5c(c4c3)CCN3C(=O)c4cc(F)ccc4N(C)C53)C(=O)NCCC[C@@H]3NC(=O)[C@H](Cc4ccccc4)NC(=O)[C@H](CC(=O)O)NC(=O)CNC(=O)[C@H](CCCNC(=N)N)NC3=O)c(=O)oc2c1` (stereo partly drawn), for which the Drug uptake entry in [2] is “Active”; in data set [3], “Not Active”; in [4] it was “Dose-Dependent Effect and Tde”; in [5] it was 44.8%.
As for `CN1c2ccc(F)cc2C(=O)N2CCc3c([nH]c4ccc(OC(=O)CCSSCCC(=O)NCCC[C@@H]5NC(=O)[C@H](Cc6ccccc6)NC(=O)[C@H](CC(=O)O)NC(=O)CNC(=O)[C@H](CCCNC(=N)N)NC5=O)cc34)C21` (stereo partly drawn), the pIC50 with U-87 MG [1] was below 6.30; in the data set on HeLa it was 6.49; in the data set on A549, below 6.30; in the data set with MCF7, 6.69.
The inhibition is the drop in the measured response relative to a control, in per cent. Consider `CN1c2ccc(F)cc2C(=O)N2CCc3c([nH]c4ccc(OC(=O)CSCC(=O)NCCC[C@@H]5NC(=O)[C@H](Cc6ccccc6)NC(=O)[C@H](CC(=O)O)NC(=O)CNC(=O)[C@H](CCCNC(=N)N)NC5=O)cc34)C21` (stereo partly drawn), for which the pIC50 in the data set with U-87 MG [1] was 7.52; with HeLa, 6.90; in the data set on A549 it was 7.34; in the data set with MCF7, 7.08. The remaining at 3 h in data set [6] came to 60%. In addition, the inhibition entry in [7] is “Dose-Dependent Effect”. Further, the Activity with U-87 MG [8] was above 90%. Moreover, the inhibition result in the data set on U-87 MG [9] and in the data set on U-87 MG [11] was “Active” each time. In the data set on U-87 MG [10], this compound gave an inhibition at 0.025 µM of 25.5%. Also, in the data set on U-87 MG [12], the “Ratio IC50” value worked out at 5.
`CN1c2ccc(F)cc2C(=O)N2CCc3c([nH]c4ccc(OC(=O)CCCC(=O)NCCCC[C@@H]5NC(=O)[C@H](Cc6ccccc6)NC(=O)[C@H](CC(=O)O)NC(=O)CNC(=O)[C@H](CCCNC(=N)N)NC5=O)cc34)C21` (stereo partly drawn): the pIC50 in the data set with U-87 MG [1] was 6.54; in the data set with HeLa, 6.44; in the data set with A549 it was 6.32; in the data set with MCF7 it was 7.16.
Regarding `CN1c2ccc(F)cc2C(=O)N2CCc3c([nH]c4ccc(OC(=O)CCSSCCC(=O)NCCCC[C@@H]5NC(=O)[C@H](Cc6ccccc6)NC(=O)[C@H](CC(=O)O)NC(=O)CNC(=O)[C@H](CCCNC(=N)N)NC5=O)cc34)C21` (stereo partly drawn), the pIC50 in the data set with U-87 MG [1] is 6.34; with HeLa it was 6.70; with A549 it was 6.41; in the data set with MCF7, 6.79.
Consider `CN1c2ccc(F)cc2C(=O)N2CCc3c([nH]c4ccc(OC(=O)CCCC(=O)NC[C@@H]5NC(=O)[C@H](Cc6ccccc6)NC(=O)[C@H](CC(=O)O)NC(=O)CNC(=O)[C@H](CCCNC(=N)N)NC5=O)cc34)C21` (stereo partly drawn), for which the negative-log IC50 (pIC50) was 6.54 in the data set with U-87 MG [1], 6.52 in the data set on HeLa, 6.51 with A549 and 6.86 in the data set with MCF7.
For `CN1c2ccc(F)cc2C(=O)N2CCc3c([nH]c4ccc(O)cc34)[C@H]21`, in that order: 6.86, 7.03, 7.65 and 8.28.
For `CN1c2ccc(F)cc2C(=O)N2CCc3c([nH]c4ccc(OC(=O)CCCC(=O)NCC[C@@H]5NC(=O)[C@H](Cc6ccccc6)NC(=O)[C@H](CC(=O)O)NC(=O)CNC(=O)[C@H](CCCNC(=N)N)NC5=O)cc34)C21` (stereo partly drawn), in that order: 6.84, 6.51, 6.46 and 7.15.
`CN1c2ccc(F)cc2C(=O)N2CCc3c([nH]c4ccc(OC(=O)CSCC(=O)NC[C@@H]5NC(=O)[C@H](Cc6ccccc6)NC(=O)[C@H](CC(=O)O)NC(=O)CNC(=O)[C@H](CCCNC(=N)N)NC5=O)cc34)C21` (stereo partly drawn): the negative-log IC50 (pIC50) in the data set on U-87 MG [1] is 6.89; in the data set with HeLa, 7.13; with A549 it was 7.29; with MCF7, 7.51.
